Experimental findings from patent US7576241B2, “Derivatives of amidines, their preparation, their use as medicaments and the pharmaceutical compositions containing them” (Ipsen Pharma S.A.S., priority 1998, dated 2009) are described below.

The term melting point denotes the temperature of the solid-liquid transition. Compound `NC(=Nc1ccc(CCNC(=O)/C=C/c2ccccc2O)cc1)c1cccs1` [Example 39, (E)-N-(4-{[amino(2-thienyl)methylidene]amino}phenethyl)-3-(2-hydroxyphenyl)-2-propenamide] showed a melting point of 145 to 155 °C.

`COc1cc(/C=C/C(=O)NCCc2ccc(N=C(N)c3cccs3)cc2)cc(OC)c1O` [Example 42, (E)-N-(4-{[amino(2-thienyl)methylidene]amino}phenethyl)-3-(4-hydroxy-3,5-dimethoxyphenyl)-2-propenamide] displayed a melting point of 196.4 to 197.6 °C.

`CC(=O)Nc1ccc(CNCCc2ccc(N=C(N)c3cccs3)cc2)cc1` [Example 58, N-(4-{[(4-{[amino(2-thienyl)methylidene]amino}phenethyl)-amino]methyl}phenyl)acetamide]: the melting point lay within 237.8 to 239 °C.

As for `NC(=Nc1ccc(CCNCc2ccc3cccc(O)c3n2)cc1)c1cccs1` [Example 59, N′-[4-(2-{[(8-hydroxy-2-quinolinyl)methyl]amino}ethyl)phenyl]-2-thiophenecarboximidamide], the melting point was > 230 °C.

In turn, `I.NC(=Nc1ccc(CCNCC=Cc2ccccc2)cc1)c1cccs1` [Example 60, N′-[4-(2-{[3-phenyl-2-propenyl]amino}ethyl)phenyl]-2-thiophenecarboximidamide hydroiodide] came in with a melting point of 151 to 153 °C.

The compound `COc1cc(C=CCNCCc2ccc(N=C(N)c3cccs3)cc2)ccc1O.O=C(O)/C=C/C(=O)O.O=C(O)/C=C/C(=O)O` [Example 61, N′-[4-(2-{[3-(4-hydroxy-3-methoxyphenyl)-2-propenyl]amino}ethyl)phenyl]-2-thiophenecarboximidamide difumarate] registered a melting point of 174 to 176 °C.

Take `COc1cc(C=CCNCCc2ccc(N=C(N)c3cccs3)cc2)cc(OC)c1O.Cl.Cl` [Example 62, N′-[4-(2-{[3-(4-hydroxy-3,5-dimethoxyphenyl)-2-propenyl]amino}ethyl)phenyl]-2-thiophenecarboximidamide dihydrochloride]: the melting point lay in the range of 182 to 184 °C.

Regarding `COc1cc(O)c(CNCCc2ccc(N=C(N)c3cccs3)cc2)c(OC)c1` [Example 64, N′-(4-{2-[(2-hydroxy-4,6-dimethoxybenzyl)amino]ethyl}phenyl)-2-thiophenecarboximidamide], the melting point is > 230 °C.
